The conditions of data set [1]: cited from earlier work.
Data set [2] can be described thus: Interaction of perfume components with cyclodextrin (CD). Type of data set: physicochemical. The note with it: perfume component with cyclodextrin. The source says:
The following table illustrates the molecular weight property of some of the preferred perfume versus non-preferred perfume components.

Regarding `ClC=CC[N+]12CN3CN(CN(C3)C1)C2.[Cl-]` [Dowicil 200, 1-(3-Chlorallyl) -3,5,7-triaza-1-azoniaadamantane chloride], the “solubility in water” value in data set [1] is recorded as “freely soluble in water”.
Take `CCC(C)(O)CCCC(C)C` (centres unmarked) [Tetrahydrolinalol]: the CD interaction result in data set [2] is reported as “significant”.

The values above are taken from patent publication US6680289B1, “Methods, compositions, and articles for odor control” (The Proctor & Gamble Company, priority 1999, dated 2004).
